In PubChem BioAssay AID180 (DTP/NCI, 2004):
Values joined by “and” are separate entries in the source; they are usually repeats but may differ in a detail not shown here. Identical values can stand only once.

System: BDF1 mice, Adenocarcinoma 755 s.c., tumor weight T/C
Test: NCI In Vivo Anticancer Drug Screen. Data for tumor model Adenocarcinoma 755 (subcutaneous) in B6D2F1 (BDF1) mice
Conditions: endpoint: mean tumor weight, higher = larger tumour
How it was run: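 Values express treated (T) relative to vehicle-dosed control (C) animals, based on survival or tumour size measured after compound treatment of mice bearing a transplanted tumour.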

## O=C1c2ccccc2C(=O)c2c1c(O)c1ccccc1c2O
dose: 100.0 mg/kg/injection, schedule: Q#A X022 (im), vehicle: other
  T/C: 92 % of control
dose: 100.0 mg/kg/injection, schedule: Q#A X022 (sc), vehicle: other
  T/C: 82 % of control
dose: 200.0 mg/kg/injection, schedule: Q#A X022 (im), vehicle: other
  T/C: 79 % of control
dose: 200.0 mg/kg/injection, schedule: Q#A X022 (sc), vehicle: other
  T/C: 82 % of control
dose: 300.0 mg/kg/injection, schedule: Q#A X022 (im), vehicle: other
  T/C: 73 % of control
dose: 300.0 mg/kg/injection, schedule: Q#A X022 (ip), vehicle: other
  T/C: 29 % of control
dose: 300.0 mg/kg/injection, schedule: Q#A X022 (sc), vehicle: other
  T/C: 52 % of control
dose: 400.0 mg/kg/injection, schedule: Q#A X022 (im), vehicle: other
  T/C: 73 % of control
dose: 400.0 mg/kg/injection, schedule: Q#A X022 (sc), vehicle: other
  T/C: 68 % of control

## Nc1nc(SCc2cccnc2)c2ncn(C3OC(CO)C(O)C3O)c2n1 (stereo not drawn)
dose: 1.5 mg/kg/injection, schedule: Q01DX011 (ip), vehicle: methylcellulose (MC)
  T/C: 92 % of control
dose: 3.1 mg/kg/injection, schedule: Q01DX011 (ip), vehicle: methylcellulose (MC)
  T/C: 87 % of control
dose: 6.2 mg/kg/injection, schedule: Q01DX011 (ip), vehicle: methylcellulose (MC)
  T/C: 12 % of control and 15 % of control

## Cc1nc(Cl)c(C#N)c(C(F)(F)F)c1[N+](=O)[O-]
dose: 30.0 mg/kg/injection, schedule: Q01DX011 (ip), vehicle: carboxymethylcellulose (CMC)
  T/C: 59 % of control
